Experimental data taken from publication PMC8453635, “Piperidine Azasugars Bearing Lipophilic Chains: Stereoselective Synthesis and Biological Activity as Inhibitors of Glucocerebrosidase (GCase)” (The Journal of Organic Chemistry, 2021).

Target: T1, GCase (Homo sapiens, UniProt P04062)
T1 construct: screened toward GCase in leukocytes isolated from healthy donors (controls); from tissue; host or cells: leukocytes isolated from healthy donors, disrupted by sonication
T1 sequence (P04062 40-536): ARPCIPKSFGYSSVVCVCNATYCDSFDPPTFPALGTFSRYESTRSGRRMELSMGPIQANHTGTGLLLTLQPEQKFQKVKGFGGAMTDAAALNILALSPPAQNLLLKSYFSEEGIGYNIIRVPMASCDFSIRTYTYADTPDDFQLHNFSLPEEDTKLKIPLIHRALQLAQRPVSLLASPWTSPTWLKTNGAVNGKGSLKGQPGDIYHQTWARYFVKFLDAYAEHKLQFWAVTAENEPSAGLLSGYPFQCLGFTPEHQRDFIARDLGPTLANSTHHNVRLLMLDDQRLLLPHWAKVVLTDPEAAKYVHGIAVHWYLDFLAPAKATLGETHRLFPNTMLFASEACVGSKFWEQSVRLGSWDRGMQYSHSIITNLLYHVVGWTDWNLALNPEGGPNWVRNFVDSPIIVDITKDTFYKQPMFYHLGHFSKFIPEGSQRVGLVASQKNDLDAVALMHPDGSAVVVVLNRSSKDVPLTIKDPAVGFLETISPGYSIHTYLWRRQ
Test: GCase inhibition in human leukocyte homogenates
Assay type: biochemical
Conditions: for GCase inhibition [%]: human leukocytes extracts incubated with azasugars (1 mM); for IC50: human leukocytes from healthy donors, substrate 4-methylumbelliferyl-β-D-glucoside 3.33 mM
Description: Compounds 14, 15, and 33·HCl were then tested at 1 mM for GCase inhibition in human leukocyte homogenates. The results obtained were compared with data of previously reported compounds 9, 11, and 12.[12],[16],[17]
The compounds 14, 15, and 33·HCl were screened toward GCase in leukocytes isolated from healthy donors (controls). Isolated leukocytes were disrupted by sonication, and a micro BCA protein assay kit (Sigma-Aldrich) was used to determine the total protein amount for the enzymatic assay, according to the manufacturer instructions. Enzyme activity was measured in a flat-bottomed 96-well plate. Compound solution (3 μL), 4.29 μg/μL leukocytes homogenate (7 μL), and substrate 4-methylumbelliferyl-β-D-glucoside (3.33 mM, 20 μL, Sigma-Aldrich) in citrate/phosphate buffer (0.1:0.2, M/M, pH 5.8) containing sodium taurocholate (0.3%) and Triton X-100 (0.15%) at 37 °C were incubated for 1 h. The reaction was stopped by addition of sodium carbonate (200 μL; 0.5 M, pH 10.7) containing Triton X-100 (0.0025%), and the fluorescence of 4-methylumbelliferone released by β-glucosidase activity was measured in SpectraMax M2 microplate reader (λex = 365 nm, λem = 435 nm; Molecular Devices). Percentage GCase inhibition is given with respect to the control (without compound). Data are mean SD (n = 3).
The IC50 values of inhibitors against GCase were determined by measuring the initial hydrolysis rate with 4-methylumbelliferyl-β-D-glucoside (3.33 mM). Data obtained were fitted by using the appropriate Equation (for more details, see the Supporting Information section).
Percentage of GCase inhibition of compounds 14, 15 and 33.HCl towards human GCase Percentage of GCase inhibition of the whole collection of compounds in human leukocytes extracts incubated with iminosugars at 1 mM concentration.
IC50 determination: The IC50 values of inhibitors against GCase were determined by measuring the initial hydrolysis rate with 4-methylumbelliferyl-β-D-glucoside (3.33 mM). Data obtained were fitted to the following equation using the Origin Microcal program. where Vi/Vo, represent the ratio between the activity measured in the presence of the inhibitor (Vi) and the activity of the control without the inhibitor (V0), “x” the inhibitor concentration, Max and Min, the maximal and minimal enzymatic activity observed, respectively.
(also on this page, place not known: Min IC x MinMax Vo Vi slope + […] […] […] […] […] […]+ −= 50 1 (V i) activity nmoli/mg/h)
(1 picture or pasted object on this page, not shown here)

| Compound | GCase inhibition [%] | IC50 | GCase inhibitory activity relative to monoalkylated counterpart 12 (comparison of IC50 values) |
| --- | --- | --- | --- |
| CCCCCCCC[C@H]1[C@@H](O)[C@H](O)[C@H](O)CN1CCCCCCCC [compound 14, (2S,3R,4R,5R)-1,2-Dioctylpiperidine-3,4,5-triol] | 100% | 100 ± 9 µM | – |
| CCCCCCCC[C@@H]1[C@@H](O)[C@H](O)[C@H](O)CN1CCCCCCCC [compound 15, (2R,3R,4R,5R)-1,2-Dioctylpiperidine-3,4,5-triol] | 100% | 15 ± 4 µM | twofold more active |
| CCCCCCCC[C@@H]1[C@@H](O)[C@H](O)[C@H](O)CN1C(CCCCCCC)CCCCCCC.Cl [compound 33·HCl, (2R,3R,4R,5R)-2-Octyl-1-(pentadecan-8-yl)-piperidine-3,4,5-triol Hydrochloride] | 75% | 130 ± 15 µM | – |
